{"source": "paper PMC12728616", "about": "“Regioselective Glycosylation of Fluorine-18-Labeled Sorbitol for Enhanced Bacterial Detection In Vivo Using PET” (JACS Au, 2025)", "key": {"Gram-positive bacteria": {"system": "Gram-positive bacteria", "experiment": "In vitro uptake of 18F-tracers across the Gram-positive panel", "type": "cell-based", "conditions": "panel of Gram-positive pathogens; FLT/FCT except E. faecalis; FMT versus FNT", "procedure": "(§1) In vitro evaluation of ^18F-tracers was conducted according to our established procedure. Briefly, bacteria were incubated overnight at 37 °C, subcultured into a fresh medium at an initial OD600 of 0.05, and then allowed to reach the mid log phase (OD600 ∼ 0.4). The cultures were subsequently incubated with ^18F-tracers (final concentration: 0.1 MBq/mL) at 37 °C for 90 min. Subsequently, 300 μL aliquots of these cultures were centrifuged at 13,200 rpm for 6 min. The resulting pellets were washed with 300 μL of phosphate-buffered saline (PBS). The radioactivity of the pellets and supernatants was measured using a gamma counter. Uptake values were normalized to colony-forming units (CFUs)."}, "Enterococcus faecalis": {"system": "Enterococcus faecalis", "experiment": "In vitro uptake of 18F-tracers by bacteria", "type": "cell-based", "conditions": "E. faecalis; 37 °C, 90 min", "procedure": "as §1"}, "K. pneumoniae [1]": {"system": "K. pneumoniae", "experiment": "PET/CT in K. pneumoniae pneumonia murine model", "type": "in vivo, mice", "procedure": "Given promising low background signals in uninfected mice, we further evaluated [^18F]-FNT and [^18F]-FMT in two different clinically relevant mouse models of lung and muscle infections. […] PET scanning was performed at 24 h postintranasal bacterial installation (Figure A). […] The ROI-derived infected/uninfected lung ratios of [^18F]-FDS, [^18F]-FMT, and [^18F]-FNT were approximately 3.2, 6.1, and 5.9-fold, respectively (Figure C), also supported by the ex vivo infected/uninfected lung ratio of [^18F]-FDS (∼1.6-fold), [^18F]-FMT (∼5.7-fold), and [^18F]-FNT (∼5.7-fold) (Figure D). Post-PET scans, infected lungs were harvested to determine colony forming units (CFUs). No significant differences in bacterial counts were observed among [^18F]-FDS, [^18F]-FMT, and [^18F]-FNT (Figure E). To confirm radiotracer specificity, we also evaluated mice inoculated with 10x heat-killed K. pneumoniae into lungs (Supporting Information Figure S5A–C).\n(§2) All animal procedures were conducted in accordance with UCSF institutional guidelines and were approved by the Institutional Animal Care and Use Committee (IACUC). Female CBA/J mice (9 and 11 weeks old) were used for the study. Pulmonary infection and bacterial myositis models were established based on previously published protocols. , For pulmonary infection, 50 μL of K. pneumoniae (5 × 10^6 CFU) or 10× heat-killed K. pneumoniae were administered intranasally under anesthesia 24 h prior to imaging using PET. After PET scans, infected lungs were homogenized in PBS and plated on LB agar. Plates were incubated overnight at 37 °C to quantify the bacterial burden. For the bacterial myositis model, mice were intramuscularly injected with either 1 × 10^6 CFUs of live S. aureus (MSSA or MRSA) or 1 × 10^7 CFUs of heat-killed bacteria (50 μL) into the left and right deltoid muscles, respectively, 10 h prior to imaging using PET. Immediately following all imaging studies, target tissues were harvested, and radioactivity was measured using a gamma counter.\nμPET/CT imaging was conducted using a nanoScan μPET/CT instrument (PET123S/CT1512, Mediso). Mice were anesthetized with 2% isoflurane/oxygen for intravenous administration of ^18F-tracers (∼5 MBq in 150 μL) via tail vein and maintained during data acquisition. PET data of uninfected mice were acquired in the list mode for 90 min, starting immediately after ^18F-tracer administration, followed by a CT scan. The PET data were reconstructed into three-dimensional volumes and coregistered with CT images using manufacturer-provided software in 53 dynamic frames (15 × 2 s, 6 × 5 s, 6 × 10 s, 4 × 30 s, 6 × 30 s, and 16 × 300 s). PET data of infected mice were acquired for 20 min, starting at 70 min postinjection of ^18F-tracer (mid time 80 min), followed by a CT scan. The list mode PET data were reconstructed into three-dimensional volumes in a single static frame. All PET scans were corrected for ^18F decay, dead time, and random coincidences and reconstructed into a 160 × 160 × 184 matrix with voxel size 0.8 mm using a three-dimensional ordered subject expectation maximization (OSEM) algorithm (40 iterations, 1 subset). Both attenuation and scatter corrections were applied to PET reconstructions using the coregistered CT. ROIs were drawn manually around the brain, lungs, liver, kidney, and urinary bladder using Amide software to generate image-derived TACs. For the estimation of blood pool radioactivity over time, ROIs were drawn on the left atrium. To estimate the plasma half-life of tracers, the TAC of the blood pool was fitted to a two-compartment model using a biexponential decay function: C t(t) = Ae ^–αt + Be ^ ‑βt , where C t(t) is the tracer concentration (% IDcc^–1) at time (t), A and B are the intercepts, and α and β are the distribution and elimination rate constants, respectively. , Quantitative uptake values are expressed as % IDcc^–1, representing the percent of the total injected dose per cubic centimeter. […]"}, "[2]": {"experiment": "Dynamic PET/CT and ex vivo biodistribution in uninfected mice", "conditions": "uninfected mice", "procedure": "To assess the effect of [^18F]-FDS glycosylation on tissue uptake in vivo, we performed dynamic PET/CT scans for 90 min after the intravenous injection of [^18F]-FNT, [^18F]-FMT, and [^18F]-FDS in uninfected mice, followed by ex vivo analysis.\n(§3) μPET/CT imaging was conducted using a nanoScan μPET/CT instrument (PET123S/CT1512, Mediso). Mice were anesthetized with 2% isoflurane/oxygen for intravenous administration of ^18F-tracers (∼5 MBq in 150 μL) via tail vein and maintained during data acquisition. PET data of uninfected mice were acquired in the list mode for 90 min, starting immediately after ^18F-tracer administration, followed by a CT scan. The PET data were reconstructed into three-dimensional volumes and coregistered with CT images using manufacturer-provided software in 53 dynamic frames (15 × 2 s, 6 × 5 s, 6 × 10 s, 4 × 30 s, 6 × 30 s, and 16 × 300 s). PET data of infected mice were acquired for 20 min, starting at 70 min postinjection of ^18F-tracer (mid time 80 min), followed by a CT scan. The list mode PET data were reconstructed into three-dimensional volumes in a single static frame. All PET scans were corrected for ^18F decay, dead time, and random coincidences and reconstructed into a 160 × 160 × 184 matrix with voxel size 0.8 mm using a three-dimensional ordered subject expectation maximization (OSEM) algorithm (40 iterations, 1 subset). Both attenuation and scatter corrections were applied to PET reconstructions using the coregistered CT. ROIs were drawn manually around the brain, lungs, liver, kidney, and urinary bladder using Amide software to generate image-derived TACs. For the estimation of blood pool radioactivity over time, ROIs were drawn on the left atrium. To estimate the plasma half-life of tracers, the TAC of the blood pool was fitted to a two-compartment model using a biexponential decay function: C t(t) = Ae ^–αt + Be ^ ‑βt , where C t(t) is the tracer concentration (% IDcc^–1) at time (t), A and B are the intercepts, and α and β are the distribution and elimination rate constants, respectively. , Quantitative uptake values are expressed as % IDcc^–1, representing the percent of the total injected dose per cubic centimeter. For the S. aureus myositis model, identical volume ROIs were drawn corresponding to the peak uptake of [^18F]-FNT at the live S. aureus inoculated site and heat-killed S. aureus inoculated site, respectively."}, "S. aureus": {"system": "S. aureus", "set-up": "method as in previously reported S. aureus sensitive PET tracers", "conditions": "S. aureus infection; ref previously reported S. aureus sensitive PET tracers; cited from earlier work"}, "[3]": {"conditions": "in vivo; cited from earlier work"}, "K. pneumoniae [4]": {"system": "K. pneumoniae", "experiment": "In vitro uptake of 18F-tracers by bacteria", "type": "cell-based, Klebsiella pneumoniae", "procedure": "as §1"}, "MRSA": {"system": "MRSA", "experiment": "PET/CT in MRSA myositis murine model", "type": "in vivo, mice", "conditions": "MRSA myositis", "procedure": "We next compared [^18F]-FNT and [^18F]-FMT PET in a S. aureus myositis model. […] To compare the in vivo detection sensitivity of [^18F]-FNT and [^18F]-FMT in a MRSA myositis model, we injected the left deltoid with live MRSA and the right deltoid with 10x heat-killed MRSA, respectively (Figure B).\nas §2, with “For the bacterial myositis model, mice were intramuscularly injected with either 1 × 10^6 CFUs of live S. aureus (MSSA or MRSA) or 1 × 10^7 CFUs of heat-killed bacteria (50 μL) into the left and right deltoid muscles, respectively, 10 h prior to imaging using PET.” left out\nas §3"}, "[5]": {"conditions": "blood pool TAC, two-compartment fit"}}}
{"smiles": "OC[C@@H](O)[C@@H](O)[C@H](O)[C@@H]([18F])CO", "note": "[[18F]FDS, 2-deoxy-2-[18F]fluoro-D-sorbitol, reference compound]", "values": [{"measurement": "in vitro uptake in Gram-positive bacteria", "setting": "Gram-positive bacteria", "result": "not taken up"}, {"measurement": "in vitro uptake", "setting": "Enterococcus faecalis", "result": "accumulated"}, {"measurement": "ex vivo infected/uninfected lung ratio", "setting": "K. pneumoniae [1]; ex vivo gamma counting after PET", "result": "~1.6", "unit": "fold"}, {"measurement": "ROI-derived infected/uninfected lung ratio", "setting": "K. pneumoniae [1]; in vivo PET, 80 min postinjection (mid time), 24 h after intranasal K. pneumoniae", "result": "approximately 3.2 fold"}, {"measurement": "area under the curve (AUC0→90min) in bladder", "setting": "[2]; i.v.", "result": "36165.8 ± 3961.5", "unit": "% IDcc^–1·min"}, {"measurement": "area under the curve (AUC0→90min) in liver", "setting": "[2]; i.v.", "result": "289.4 ± 21.3", "unit": "% IDcc^–1·min"}, {"measurement": "peak uptake (Cmax) in bladder", "setting": "[2]; i.v., dynamic PET 90 min", "result": "525.5 ± 37.0", "unit": "% IDcc^–1"}, {"measurement": "peak uptake (Cmax) in kidneys", "setting": "[2]; i.v., dynamic PET 90 min", "result": "71.3 ± 9.7", "unit": "% IDcc^–1"}, {"measurement": "peak uptake (Cmax) in liver", "setting": "[2]; i.v., dynamic PET 90 min", "result": "28.6 ± 5.0", "unit": "% IDcc^–1"}, {"measurement": "elimination half-life (T1/2β)", "setting": "[2]; [5]", "result": 18.74, "unit": "min"}, {"measurement": "plasma distribution half-life (T1/2α)", "setting": "[2]; [5]", "result": 0.43, "unit": "min"}]}
{"smiles": "[2H]C([2H])([18F])[C@@]([2H])(N)C(=O)O", "note": "[D-[18F]FAla-d3]", "values": [{"measurement": "target-to-nontarget ratio", "setting": "S. aureus", "result": "~2.4", "unit": "fold"}]}
{"smiles": "N[C@H](CC[11C](N)=O)C(=O)O", "note": "[D-[5-11C]-Gln]", "values": [{"measurement": "target-to-nontarget ratio", "setting": "S. aureus", "result": "~2.3", "unit": "fold"}]}
{"smiles": "OC[C@H]1OC(O)[C@H]([18F])[C@@H](O)[C@@H]1O", "note": "(stereo partly drawn) [[18F]FDG]", "values": [{"measurement": "known effective dose", "setting": "[3]", "result": 0.017, "unit": "mSv/MBq"}]}
{"smiles": "OC[C@@H](O)[C@@H](O[C@@H]1O[C@H](CO)[C@@H](O)[C@H](O)[C@H]1O)[C@H](O)[C@@H]([18F])CO", "note": "[[18F]FCT, 2-deoxy-2-[18F]fluoro-D-cellobiotol]", "values": [{"measurement": "in vitro uptake in Gram-positive bacteria", "setting": "Gram-positive bacteria", "result": "negligible uptake"}, {"measurement": "in vitro uptake", "setting": "K. pneumoniae [4]", "result": "poorly taken up"}]}
{"smiles": "OCC1OC(OC2C(O)C(CO)OC(O)C2[18F])C(O)C(O)C1O", "note": "(stereo not drawn) [[18F]FSK, reference compound]", "values": [{"measurement": "target-to-nontarget ratio", "setting": "S. aureus", "result": "~7", "unit": "fold"}, {"measurement": "ratio of live/heat-killed S. aureus inoculated sites, in vivo", "setting": "MRSA; PET 80 min postinjection (mid time)", "result": 28, "unit": "fold"}, {"measurement": "ratio of live/heat-killed S. aureus inoculated sites, ex vivo", "setting": "MRSA; ex vivo analysis", "result": 17, "unit": "fold"}]}
{"smiles": "Nc1ccc([11C](=O)O)cc1", "note": "[[11C]PABA]", "values": [{"measurement": "target-to-nontarget ratio", "setting": "S. aureus", "result": "~28", "unit": "fold"}]}
{"smiles": "OCC1OC(OC2C(CO)OC(O)C([18F])C2O)C(O)C(O)C1O", "note": "(stereo not drawn) [[18F]FDM]", "values": [{"measurement": "target-to-nontarget ratio", "setting": "S. aureus", "result": "~6", "unit": "fold"}]}
{"smiles": "Nc1ccc(C(=O)O)c([18F])c1", "note": "[2-[18F]F-PABA]", "values": [{"measurement": "target-to-nontarget ratio", "setting": "S. aureus", "result": "~8", "unit": "fold"}]}
{"smiles": "N[C@H](C[18F])C(=O)O", "note": "[D-[18F]FAla]", "values": [{"measurement": "target-to-nontarget ratio", "setting": "S. aureus", "result": "~2", "unit": "fold"}]}
{"smiles": "OCCOCc1ccc(-c2noc(-c3ccc(OCC[18F])c(C(F)(F)F)c3)n2)cc1", "note": "[[18F]TZ4877]", "values": [{"measurement": "target-to-nontarget ratio", "setting": "S. aureus", "result": "~1.3", "unit": "fold"}]}
{"smiles": "OC[C@@H](O)[C@@H](O)[C@H](O)[C@H]([18F])CO", "note": "[[18F]FMtl]", "values": [{"measurement": "target-to-nontarget ratio", "setting": "S. aureus", "result": "~4", "unit": "fold"}]}
{"smiles": "[11CH3]SCC[C@@H](N)C(=O)O", "note": "[D-[11C]Met]", "values": [{"measurement": "target-to-nontarget ratio", "setting": "S. aureus", "result": "~10", "unit": "fold"}]}
{"smiles": "[11CH3][C@@H](N)C(=O)O", "note": "[D-[3-11C]Ala]", "values": [{"measurement": "target-to-nontarget ratio", "setting": "S. aureus", "result": "~4", "unit": "fold"}]}
